Reference: patent US20100227853A1, “INHIBITORS OF CYCLIC AMP PHOSPHODIESTERASES” (Trustees of Boston College, priority 2008, published 2010)

Legend:
[1] = biological target: T1, PDE4A1 (Mus musculus, UniProt O89084); experiment: 5FOA growth assay (high throughput screen, ED50) in fission yeast strain expressing PDE4A1; type: cell-based; conditions: high throughput 5FOA growth screen; greater than 8.53 = statistically-significant inhibitor
T1 construct: targets used in the assays are full-length proteins (as opposed to simply the catalytic domain); expressed in transfected cells; host or cells: Schizosaccharomyces pombe, PDE gene integrated in place of cgs2
T1 sequence (O89084 1-610 isoform O89084-2): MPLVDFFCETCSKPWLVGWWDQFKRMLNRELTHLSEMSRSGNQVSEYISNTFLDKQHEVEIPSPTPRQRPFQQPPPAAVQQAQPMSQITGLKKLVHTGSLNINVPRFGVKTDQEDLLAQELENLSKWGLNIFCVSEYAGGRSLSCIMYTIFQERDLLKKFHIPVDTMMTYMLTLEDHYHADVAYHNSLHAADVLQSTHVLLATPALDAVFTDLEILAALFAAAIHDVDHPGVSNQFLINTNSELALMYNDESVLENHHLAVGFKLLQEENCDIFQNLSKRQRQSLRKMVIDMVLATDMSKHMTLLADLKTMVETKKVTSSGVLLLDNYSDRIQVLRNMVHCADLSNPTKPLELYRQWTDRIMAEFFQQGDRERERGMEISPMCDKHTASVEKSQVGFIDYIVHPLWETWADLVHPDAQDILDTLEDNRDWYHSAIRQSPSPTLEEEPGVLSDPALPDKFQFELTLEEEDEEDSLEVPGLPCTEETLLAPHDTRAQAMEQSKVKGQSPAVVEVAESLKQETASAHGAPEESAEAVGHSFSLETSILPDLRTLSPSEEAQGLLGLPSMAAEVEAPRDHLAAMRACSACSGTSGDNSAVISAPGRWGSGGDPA
Procedure: (§1) High throughput drug screens were carried out at the Broad Institute's Chemical Biology Program screening facility (Broad Institute, Cambridge, Mass.). Depending upon the strain, cultures were pregrown to exponential phase in EMM complete medium containing from 0.5 to 2.5 mM cAMP to repress fbp1-ura4 transcription. […] Starting cell concentrations ranged from 0.5×10^5 to 4×10^5 cells/ml depending on the screening strain. […] Other positive control dishes contained 5 mM cAMP in the 5FOA medium. Cultures were grown for 48 hours at 30° C., sealed in an airtight container with moist paper towels to prevent evaporation. Optical densities (OD600) of cultures were measured using a microplate reader. Bioinformatic analysis of the results to determine composite Z scores was performed as previously described^30, 31.
(§2) To determine whether the 5FOA growth phenotype could be exploited for high throughput drug screening, strains expressing PDE2A, PDE4A, PDE4B, or PDE8A were pre-grown in EMM medium containing cAMP and then transferred to 5FOA medium in 384 well microtiter plates in the presence or absence of cAMP. OD600 measurements were taken after 48 hours incubation at 30° C.
(§3) Cells were pregrown in EMM medium [MP Biomedicals (Solon, Ohio), 3% glucose, filter-sterilized to avoid carmelization, which would introduce variability into the optical density of the medium] containing from 0 mM to 2.5 mM cAMP (or either 0.5 mM or 1.0 mM cGMP). This was to repress expression of the fbp1-ura4 reporter prior to exposure of cells to 5FOA medium. Cells were grown at 30° C. to exponential phase (approximately 10^7 cells/ml). […] Starting cell concentrations ranged from 0.5×10^5 to 4×10^5 cells/ml depending on the screening strain. […] Other positive control dishes contained 5 mM cAMP in the 5FOA medium for PDEs that lack appropriate control compounds. Cultures were grown for 48 hours at 30° C., sealed in an airtight container with moist paper towels to prevent evaporation. Optical densities (OD600) of cultures were measured using a microplate reader. Bioinformatic analysis of the results to determine composite Z scores was performed as previously described (1, 3).

[2] = biological target: T2, PDE4B3 (Mus musculus, UniProt Q8VBU5); experiment: 5FOA growth assay in fission yeast strain expressing PDE4B3; type: cell-based, Murine; conditions: high throughput 5FOA growth screen
T2 construct: targets used in the assays are full-length proteins (as opposed to simply the catalytic domain); expressed in transfected cells; host or cells: Schizosaccharomyces pombe, PDE gene integrated in place of cgs2
T2 sequence (Q8VBU5 1-721): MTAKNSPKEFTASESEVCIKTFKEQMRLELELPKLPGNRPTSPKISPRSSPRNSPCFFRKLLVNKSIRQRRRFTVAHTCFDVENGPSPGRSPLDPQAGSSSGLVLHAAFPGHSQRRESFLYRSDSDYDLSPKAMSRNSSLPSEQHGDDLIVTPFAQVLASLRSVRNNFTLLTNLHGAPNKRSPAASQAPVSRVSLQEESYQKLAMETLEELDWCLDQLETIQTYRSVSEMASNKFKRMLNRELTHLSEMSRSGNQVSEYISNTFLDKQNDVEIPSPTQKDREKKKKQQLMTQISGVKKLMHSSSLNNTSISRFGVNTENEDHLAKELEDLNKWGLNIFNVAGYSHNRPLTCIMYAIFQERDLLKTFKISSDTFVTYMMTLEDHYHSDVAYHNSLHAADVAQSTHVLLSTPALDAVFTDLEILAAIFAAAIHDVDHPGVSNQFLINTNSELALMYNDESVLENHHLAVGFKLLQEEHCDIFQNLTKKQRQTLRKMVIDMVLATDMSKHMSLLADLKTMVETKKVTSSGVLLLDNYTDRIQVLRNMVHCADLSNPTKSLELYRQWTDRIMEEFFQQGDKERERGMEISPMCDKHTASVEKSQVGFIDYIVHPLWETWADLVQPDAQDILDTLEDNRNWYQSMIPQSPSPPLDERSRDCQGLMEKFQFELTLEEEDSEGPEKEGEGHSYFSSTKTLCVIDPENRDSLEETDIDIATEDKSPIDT
Procedure: as §1, §2, §3

[3] = biological target: PDE7A (Homo sapiens, UniProt Q13946); experiment: 5FOA growth assay in fission yeast strain expressing PDE7A; type: cell-based; set-up: targets used in the assays are full-length proteins (as opposed to simply the catalytic domain); expressed in transfected cells; host or cells: Schizosaccharomyces pombe, PDE gene integrated in place of cgs2; conditions: high throughput 5FOA growth screen
Procedure: PDE inhibition allows growth in 5FOA medium as measured by optical density after 48 hours incubation at 30° C. Compound BC12 and six structural analogs were tested for growth stimulation.
Cells were pregrown in EMM medium [MP Biomedicals (Solon, Ohio), 3% glucose, filter-sterilized to avoid carmelization, which would introduce variability into the optical density of the medium] containing from 0 mM to 2.5 mM cAMP (or either 0.5 mM or 1.0 mM cGMP). This was to repress expression of the fbp1-ura4 reporter prior to exposure of cells to 5FOA medium. Cells were grown at 30° C. to exponential phase (approximately 10^7 cells/ml). Cells were collected by centrifugation and resuspended in 5FOA medium, and 25 μl were transferred to 384-well microtiter dishes (untreated, with flat clear bottoms) that had been pre-filled with 25 μl 5FOA medium and pre-pinned with 100 nl of compounds (stock solutions were generally 10 mM). Starting cell concentrations ranged from 0.5×10^5 to 4×10^5 cells/ml depending on the screening strain. […] Other positive control dishes contained 5 mM cAMP in the 5FOA medium for PDEs that lack appropriate control compounds. Cultures were grown for 48 hours at 30° C., sealed in an airtight container with moist paper towels to prevent evaporation. Optical densities (OD600) of cultures were measured using a microplate reader. Bioinformatic analysis of the results to determine composite Z scores was performed as previously described (1, 3).

Chain of PDE7A (Q13946 whole entry, the tested form may be a part): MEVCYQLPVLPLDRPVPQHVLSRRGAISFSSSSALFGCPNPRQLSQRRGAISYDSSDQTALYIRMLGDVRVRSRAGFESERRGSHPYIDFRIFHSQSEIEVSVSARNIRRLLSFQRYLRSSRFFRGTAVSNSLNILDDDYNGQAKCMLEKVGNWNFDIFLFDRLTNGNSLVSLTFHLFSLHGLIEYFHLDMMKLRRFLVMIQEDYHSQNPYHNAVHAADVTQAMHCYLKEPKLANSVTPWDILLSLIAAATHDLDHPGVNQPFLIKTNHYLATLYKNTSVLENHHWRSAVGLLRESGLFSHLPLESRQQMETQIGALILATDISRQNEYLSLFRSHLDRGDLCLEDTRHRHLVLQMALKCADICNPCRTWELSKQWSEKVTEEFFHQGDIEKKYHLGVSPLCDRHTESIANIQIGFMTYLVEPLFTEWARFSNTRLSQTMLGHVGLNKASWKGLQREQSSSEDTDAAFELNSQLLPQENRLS

Structure (SMILES) | Composite Z score, PDE4A1 [1] | Composite Z score, PDE4B3 [2] | Composite Z score, PDE7A [3]
CC(C)CNc1ncnc2sc3c(c12)CCCC3 [Compound 2077P12] | 1.6797 | 9.3964 | 17.695
CCN(CC)CCCNc1ncnc2sc3c(c12)CC(C)CC3 (stereo not drawn) [Compound 2083L15] | 1.9931 | −0.877 | −1.18
CCOC(=O)c1sc2nc(CC(=O)OC)nc(NCC(=O)OC)c2c1C [Compound 1379F18] | −0.126 | 3.0462 | 
COc1ccc(C(=O)Nc2ncnc3sc4c(c23)CCCC4)cc1OC [Compound 1414F18] | 9.1375 | −0.382 | 
Cc1nc(NCc2ccco2)c2c3c(sc2n1)CCC3 [Compound 1426I13] | −0.033 | −0.071 | 
Cc1nc(N2CCCN(C)CC2)c2c3c(sc2n1)CCC3 [Compound 1415C05] | 0.327 | 0.6059 | 
c1nc(N2CCCCC2)c2c3c(sc2n1)CCC3 [Compound 1421A20] | 4.6254 | 4.7765 | 
Cc1nc(N2CCC(C)CC2)c2c(C)c(C(=O)N3CCOCC3)sc2n1 [Compound 1424A12] | 2.2036 | −2.898 | 
OCCN(CCO)c1ncnc2sc3c(c12)CCCC3 [1415 E01] | 2.2076 | 0.8257 | 
Cc1nc(N2CCOCC2)c2c(C)c(C(=O)Nc3cccc(Cl)c3C)sc2n1 [Compound 1424K08] | 3.4896 | 21.717 | 

Further lines, results first:

Composite Z score, PDE4A1 [1] | Composite Z score, PDE4B3 [2] | Composite Z score, PDE7A [3] | Structure (SMILES)
−0.348 | 0.8366 | 0.7527 | c1ccc(CN2CCN(c3ncnc4sc5c(c34)CCCCC5)CC2)cc1 [Compound 2074A07]
11.67 | −1.188 | −1.925 | Cc1sc2ncnc(N3CCN(c4cccc(C(F)(F)F)c4)CC3)c2c1C [Compound 2074G03]
0.1942 | 0.6718 | 0.0079 | Cc1sc2ncnc(N3CCN(CCO)CC3)c2c1C [Compound 2084A21]
0.3168 | 0.8136 | −1.774 | Cc1sc2ncnc(NCC(=O)O)c2c1C [Compound 2085F18]
1.0991 | −1.519 | −0.627 | Cc1sc2ncnc(N(C)C)c2c1C [Compound 2085O15]
0.1374 | 1.6993 | 0.439 | Cc1sc2ncnc(NCc3cccnc3)c2c1C [Compound 2081F17]
0.4867 | −1.074 |  | CC1CCc2c(sc3ncnc(NCCN4CCOCC4)c23)C1 (stereo not drawn) [Compound 1425N16]
7.8022 | 0.9421 | 12.419 | O=C(Nc1ncnc2sc3c(c12)CCC3)c1cccs1 [Compound 2084I06]
6.7542 | 47.874 |  | CC1CCc2c(sc3nc(SCC(N)=O)nc(NCc4ccccc4)c23)C1 (stereo not drawn) [Compound 1439G17]
−0.147 | −0.516 |  | Cc1sc2ncnc(NC3CCN(Cc4ccccc4)CC3)c2c1C [Compound 1426C09]
36.663 | −0.935 |  | O=C(Nc1ncnc2sc3c(c12)CCC3)c1ccccc1 [Compound 1380I07]
1.5745 | 0.9419 |  | Cc1sc2ncnc(NCc3ccc4c(c3)OCO4)c2c1C [Compound 1426A15]
1.647 | 0.0332 |  | CCN(CC)c1ncnc2sc(C)c(C)c12 [Compound 1403J21]
0.9043 | 4.2065 |  | COc1ccc(CCNc2ncnc3sc(C)c(C)c23)cc1OC [Compound 1423F01]
